From patent publication US20250277030A1, “ANTI-NAPI2B ANTIBODIES AND METHODS OF USE” (Zymeworks BC Inc., priority 2022, published 2025)

Columns and labels:
[1] = system: NCI-H441 cells; assay: Internalization by flow cytometry in NCI-H441 cells; format: cell-based, human; conditions: antibody 10 nM
Method: Briefly, antibodies were fluorescently labeled by coupling to a Fab fragment AF488 conjugate targeting anti-Human IgG Fe (Jackson Immuno Research Labs, West Grove, PA; Cat. No. 109-547-008) at a 1:1 molar ratio in PBS pH 7.4 (Thermo Fisher Scientific, Waltham, MA; Cat. No. 10010-023), for 24 hours at 4° C. Cells were seeded at 50,000 cells/well in RPMI 1640, ATCC modification (Thermo Fisher Scientific, Waltham, MA) supplemented with 10% fetal bovine serum (Thermo Fisher Scientific, Waltham, MA) in 48-well plates and incubated overnight under standard culturing conditions (37° C./5% CO2) to allow attachment. […] Following incubation, cells were dissociated, washed, and surface AF488 fluorescence was quenched using an anti-AF488 antibody (Life Technologies, Carlsbad, CA; Cat. No. A-11094) at 100 nM for 30 minutes at 4° C. […] (internalized fluorescence) was detected by flow cytometry on a BD LSRFortessa™ Cell Analyzer (BD Biosciences, Franklin Lake, NJ) with 1,000 minimum events collected per well. The AF488/FITC-A GeoMean (fluorescence signal geometric mean, proportional to anti-Human Fab AF488 labelling) was calculated for the live single cell population using FlowJo™ Version 10.8.1 (BD Biosciences, Franklin Lake, NJ) and plotted using GraphPad Prism Version 9 (GraphPad Software, San Diego, CA).

[2] = biological target: T1, NaPi2b expressed on TOV-21G cells (Homo sapiens, UniProt O95436); assay: Cellular binding to TOV-21G cells by flow cytometry (Example 19); conditions: NB = no binding (apparent Kd >150 nM)
T1 construct: IGROV-1 and TOV-21G cells express endogenous NaPi2b at high and moderate levels, respectively; endogenous in cells; host or cells: TOV-21G
T1 sequence (O95436 1-690): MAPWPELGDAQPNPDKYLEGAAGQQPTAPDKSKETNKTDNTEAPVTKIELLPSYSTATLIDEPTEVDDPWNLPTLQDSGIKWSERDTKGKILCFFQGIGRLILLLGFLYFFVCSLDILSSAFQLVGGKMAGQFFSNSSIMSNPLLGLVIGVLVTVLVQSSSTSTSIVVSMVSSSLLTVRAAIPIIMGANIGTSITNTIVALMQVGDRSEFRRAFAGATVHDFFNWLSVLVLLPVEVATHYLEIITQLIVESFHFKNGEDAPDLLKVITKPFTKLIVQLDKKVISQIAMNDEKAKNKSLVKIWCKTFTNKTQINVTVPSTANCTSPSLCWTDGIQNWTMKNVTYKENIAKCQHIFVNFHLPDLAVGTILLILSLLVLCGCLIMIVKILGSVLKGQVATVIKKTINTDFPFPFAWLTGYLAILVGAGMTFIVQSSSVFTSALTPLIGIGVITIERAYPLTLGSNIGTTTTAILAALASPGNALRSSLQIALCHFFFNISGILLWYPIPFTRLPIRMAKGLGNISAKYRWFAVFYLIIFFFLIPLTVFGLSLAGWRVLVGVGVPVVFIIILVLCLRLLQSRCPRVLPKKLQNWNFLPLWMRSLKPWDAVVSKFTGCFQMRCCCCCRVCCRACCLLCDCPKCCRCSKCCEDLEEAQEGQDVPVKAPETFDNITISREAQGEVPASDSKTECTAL
Method: Briefly, cells were seeded at 50,000 cells/well in conical-bottom 96-well plates and treated with test antibody for 24 hours at 4° C. to prevent internalization. Palivizumab (anti-RSV antibody, v22277) was included as a negative control. […] Following incubation, cells were washed and stained with anti-Human IgG Fc AF647 conjugate (Jackson Immuno Research Labs, West Grove, PA; Cat. No. 109-605-098) at 4° C. for 30 min. Following incubation and washing, fluorescence was detected by flow cytometry on a BD LSRFortessa™ Cell Analyzer (BD Biosciences, Franklin Lake, NJ) with 1,000 minimum events collected per well. The AF647/APC-A GeoMean (fluorescence signal geometric mean, proportional to anti-Human AF647 binding) was calculated for the live cell population using FlowJo™ Version 10.8.1 (BD Biosciences, Franklin Lake, NJ) and plotted for each test antibody using GraphPad Prism Version 9 (GraphPad Software, San Diego, CA).
The ability of the humanized antibody variants v38591 and v29456 to bind to NaPi2b expressed on cells was assessed on endogenous NaPi2b-expressing tumor cell lines IGROV-1 (ovarian adenocarcinoma) and TOV-21G (ovarian carcinoma) by flow cytometry. IGROV-1 and TOV-21G cells express endogenous NaPi2b at high and moderate levels, respectively, as described in Example 10.
Cellular binding was performed according to methods described in Example 13.

Substance: v22277: anti-RSV antibody palivizumab, negative control; has a heterodimeric Fc [reference compound]
- Internalized Fluorescence Fold-Over Palivizumab ([1]; NCI-H441, 5 hrs): 1.0 fold
- Internalized Fluorescence Fold-Over Palivizumab ([1]; NCI-H441, 24 hrs): 1.0 fold
- Kd [2]: > 150 nM
